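Results reflect a 48-hour exposure of cells in 96-well plates to compound at five concentrations. The concentration for 50% growth inhibition is given as GI50. TGI marks complete inhibition of growth.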
Legend:
Assay in all cases: NCI tumour cell line growth inhibition, 48 h
[1] = tested on: A549 NSCLC
[2] = tested on: HS 578T breast
[3] = tested on: M14 melanoma
[4] = tested on: MALME-3M melanoma
[5] = tested on: MDA-MB-231 breast
[6] = tested on: NCI-H23 lung
[7] = tested on: OVCAR-5 ovarian
[8] = tested on: SNB-75 CNS
[9] = tested on: U251 CNS
[10] = tested on: UO-31 renal

Row | Compound | GI50 [1] [µM] | TGI [1] [µM] | GI50 [2] [µM] | TGI [2] [µM] | GI50 [3] [µM] | TGI [3] [µM] | GI50 [4] [µM] | TGI [4] [µM] | GI50 [5] [µM] | TGI [5] [µM] | GI50 [6] [µM] | TGI [6] [µM] | GI50 [7] [µM] | TGI [7] [µM] | GI50 [8] [µM] | TGI [8] [µM] | GI50 [9] [µM] | TGI [9] [µM] | GI50 [10] [µM] | TGI [10] [µM]
1 | CCN(CC)CCOc1ccc(/C(=C(\C)c2ccc(F)c(OC)c2)c2ccc(Cl)cc2)cc1 | 2.61 | 5.63 | 2.42 | 5.84 | 2.81 | 5.64 | 2.09 | 4.7 | 2.54 | 4.8 | 2.39 | 4.97 | 2.4 | 4.83 | 2.02 | 4.84 | 2.23 | 4.74 | 1.89 | 3.96
2 | Nc1nc(Cl)cc(NCCO)n1 |  | > 100 |  | > 100 |  | > 100 |  | > 100 |  | > 100 |  | > 100 |  | > 100 |  | > 100 |  | > 100 |  | > 100
3 | Cc1[nH]n(-c2cccc(Cl)c2)c(=O)c1/C=C1\C=Nc2ccc(Br)cc21 | 2.27 | 5.68 | 2.46 | 8.04 | 14.1 | > 100 | 3.15 | 13.1 | 3.4 | 15.3 | 6.65 | 26.4 | 3.1 | 10.2 | 1.25 | 3.37 | 2.83 | 8.65 | 2.08 | 6.57
4 | O=C(O)c1c(-c2nccc3ccccc23)[nH]c(-c2ccccc2)c1S(=O)(=O)O |  | > 100 |  | > 100 |  | > 100 |  | > 100 |  | > 100 |  | > 100 |  | > 100 |  | > 100 |  | > 100 |  | > 100
5 | NC(=O)C(=CNc1nc(-c2ccc(Cl)c(Cl)c2)cs1)C(N)=O | 85.7 | > 100 | 26.9 | > 100 | > 100 | > 100 | > 100 | > 100 | 60.8 | > 100 | > 100 | > 100 | > 100 | > 100 | > 100 | > 100 | 65 | > 100 | 12.1 | > 100
6 | CC(=O)Oc1ccccc1C(=O)N=C1[Se]CCN1C(=O)c1ccccc1OC(C)=O | 0.832 | 2.64 | 0.507 | 3.02 | 0.523 | 2.2 | 0.38 | 1.45 | 0.472 | 3.06 | 1.56 | 5.43 | 0.839 | 6.11 | 1.25 | 3 | 0.734 | 2.18 | 0.424 | 1.53
7 | C#C[C@]1(O)CC[C@H]2[C@@H]3CC=C4c5sc(Nc6ccccc6)nc5CC[C@]4(C)[C@H]3CC[C@@]21C | 3.48 | 24.9 | 0.504 | 5.23 | 1.6 | 4.51 | 1.31 | 3.79 | 2.01 | 6.8 | 2.37 | 13.1 | 2.44 | 9.68 | 0.858 | 7.41 | 0.886 | 3.18 | 1.43 | 2.91
8 | CC(=O)O[C@@H]1C[C@]2(C(C)C)O[C@@]1(C)[C@@H]1CCC(C)=C1[C@@H]2OC(=O)/C=C/c1ccccc1 | 47 | > 100 | 4.79 | > 100 | 40.1 | > 100 | 39.2 | > 100 | 49.3 | > 100 | 35.3 | > 100 | > 100 | > 100 | 27.9 | > 100 | 48.4 | > 100 | 20 | > 100
9 | O=C1/C(=C\c2cccn2Cc2ccccc2)c2ccccc2N1c1c(Cl)cccc1Cl | 8.32 | > 100 | > 100 | > 100 | > 100 | > 100 | 3.22 | > 100 | 5.83 | > 100 | > 63 | > 100 | 4.37 | > 100 | > 22.9 | > 100 | > 100 | > 100 | 3.89 | > 100
10 | Cc1c(C2Nc3ccccc3C2C)[nH]c2ccccc12 (stereo unspecified) | 1.67 | 24.1 | 16.1 | 49.7 | 15.3 | 38.7 | 10.6 | 24.8 | 5.37 | 21.4 | 14.5 | 32.1 | 14.8 | 30.9 | 5.06 | 29.8 |  |  | 6.27 | 22.1
11 | O=C(O)Cc1c(O)ccc2ccccc12 |  | > 100 |  | > 100 |  | > 100 |  | > 100 |  | > 100 |  | > 100 |  | > 100 |  | > 100 |  | > 100 |  | 
12 | COc1ccc(/C=c2/sc3n(c2=O)C(c2ccc(OC)c(OC)c2)C2=C(N=3)c3cc(F)ccc3OC2)cc1 (stereo unspecified) | 23.6 | > 82 | 27 | > 87.5 | 36.9 | > 100 |  |  | 14.8 | > 75.1 | 3.69 | 26.1 | 52.8 | > 100 | 16.1 | 98.2 | 20.9 | > 78.5 | 27.6 | > 77.7
13 | O=C1c2ccn(CCCCNC(CO)(CO)CO)c2C(=O)c2c1c(O)c1ccccc1c2O | 1.86 | 3.96 | 11.5 | > 75 | 1.86 | 3.59 |  |  | 0.457 | 2.26 | 3.01 | 7.78 | 1.91 | 4.4 | 11.9 | 47.2 | 1.95 | 4.67 | 23.7 | > 100
14 | CC(C)c1ccccc1S(=O)c1ccccc1C(C)(C)O (stereo unspecified) |  | > 100 |  | > 100 |  | > 100 |  | > 100 |  | > 100 |  | > 100 |  | > 100 |  | > 100 |  | 39.1 |  | 
15 | O/N=C\c1c(O)ccc2ccccc12 |  | > 100 |  | > 100 |  | > 100 |  | 75.5 |  | > 100 |  | > 100 |  | > 100 |  | > 100 |  | > 100 |  | 

Reference: PubChem BioAssay (NCI)
